In US8445510B2, “Fused bicyclic kinase inhibitors” (OSI Pharmaceuticals, LLC, priority 2011, dated 2013):

Assays:
MKN45 cells = assay: MKN45 cell proliferation assay (CellTiter-Glo); assay type: cell-based; settings: Homo sapiens, MKN-45, 72 h; MKN45 cell line; 3 days incubation; at least duplicate experiments; read-out: Prolif. IC50
Karpas-299 cells = assay: Karpas-299 cell proliferation assay (CellTiter-Glo); assay type: cell-based; settings: Homo sapiens, 72 h; Karpas-299 cell line (NPM-ALK); 3 days incubation; at least duplicate experiments; read-out: Prolif. IC50

Row | Compound | IC50 (MKN45 cells) | IC50 (Karpas-299 cells)
1 | COc1ccc(F)c(Cl)c1[C@@H](C)c1c[nH]c2ncc(-c3c[nH]nc3C)cc12 [Example 1, 3-[(1S)-1-(2-Chloro-3-fluoro-6-methoxyphenyl)ethyl]-5-(3-methyl-1H-pyrazol-4-yl)-1H-pyrrolo[2,3-b]pyridine] | ≤ 50 nM | 50 to 200 nM
2 | COc1ccc(F)c(Cl)c1[C@@H](C)c1c[nH]c2ncc(-c3cn(C)nc3C)cc12 [Example 2, 3-[(1S)-1-(2-Chloro-3-fluoro-6-methoxyphenyl)ethyl]-5-(1,3-dimethyl-1H-pyrazol-4-yl)-1H-pyrrolo[2,3-b]pyridine] | 50 to 200 nM | 50 to 200 nM
3 | COc1ccc(F)c(Cl)c1[C@@H](C)c1c[nH]c2ncc(-c3cnn(C)c3C)cc12 [Example 3, 3-[(1S)-1-(2-Chloro-3-fluoro-6-methoxyphenyl)ethyl]-5-(1,5-dimethyl-1H-pyrazol-4-yl)-1H-pyrrolo[2,3-b]pyridine] | ≤ 50 nM | 50 to 200 nM
4 | COc1ccc(F)c(Cl)c1[C@@H](C)c1c[nH]c2ncc(-c3c(C)nn(C)c3C)cc12 [Example 4, 3-[(1S)-1-(2-Chloro-3-fluoro-6-methoxyphenyl)ethyl]-5-(1,3,5-trimethyl-1H-pyrazol-4-yl)-1H-pyrrolo[2,3-b]pyridine] | 200 to 1000 nM | 50 to 200 nM
5 | COc1ccc(F)c(Cl)c1[C@@H](C)c1c[nH]c2ncc(-c3c(C)nn(CC(C)(C)O)c3C)cc12 [Example 5, 1-(4-{3-[(1S)-1-(2-Chloro-3-fluoro-6-methoxyphenyl)ethyl]-1H-pyrrolo[2,3-b]pyridin-5-yl}-3,5-dimethyl-1H-pyrazol-1-yl)-2-methylpropan-2-ol] | 50 to 200 nM | ≤ 50 nM
6 | COc1ccc(F)c(Cl)c1[C@@H](C)c1c[nH]c2ncc(-c3c(C)nn([C@H]4CC[C@H](O)CC4)c3C)cc12 [Example 6, trans-4-(4-{3-[(1S)-1-(2-Chloro-3-fluoro-6-methoxyphenyl)ethyl]-1H-pyrrolo[2,3-b]pyridin-5-yl}-3,5-dimethyl-1H-pyrazol-1-yl)cyclohexanol] | ≤ 50 nM | ≤ 50 nM
7 | COc1ccc(F)c(Cl)c1[C@@H](C)c1c[nH]c2ncc(-c3cn(CC(C)(C)O)nc3C)cc12 [Example 7, 1-(4-{3-[(1S)-1-(2-Chloro-3-fluoro-6-methoxyphenyl)ethyl]-1H-pyrrolo[2,3-b]pyridin-5-yl}-3-methyl-1H-pyrazol-1-yl)-2-methylpropan-2-ol] | ≤ 50 nM | 50 to 200 nM
8 | COc1ccc(F)c(Cl)c1[C@@H](C)c1c[nH]c2ncc(-c3cnn(CC(C)(C)O)c3C)cc12 [Example 8, 1-(4-{3-[(1S)-1-(2-Chloro-3-fluoro-6-methoxyphenyl)ethyl]-1H-pyrrolo[2,3-b]pyridin-5-yl}-5-methyl-1H-pyrazol-1-yl)-2-methylpropan-2-ol] | ≤ 50 nM | 50 to 200 nM
9 | COc1ccc(F)c(Cl)c1[C@@H](C)c1c[nH]c2ncc(-c3cnn(C[C@H](O)CO)c3C)cc12 [Example 10, (2S)-3-(4-{3-[(1S)-1-(2-Chloro-3-fluoro-6-methoxyphenyl)ethyl]-1H-pyrrolo[2,3-b]pyridin-5-yl}-5-methyl-1H-pyrazol-1-yl)propane-1,2-diol] | ≤ 50 nM | ≤ 50 nM
10 | CCc1c(-c2cnc3[nH]cc([C@H](C)c4c(OC)ccc(F)c4Cl)c3c2)cnn1CC(C)(C)O [Example 11, 1-(4-{3-[(1S)-1-(2-Chloro-3-fluoro-6-methoxyphenyl)ethyl]-1H-pyrrolo[2,3-b]pyridin-5-yl}-5-ethyl-1H-pyrazol-1-yl)-2-methylpropan-2-ol] | 50 to 200 nM | 200 to 1000 nM
11 | CCc1nn(CC(C)(C)O)cc1-c1cnc2[nH]cc([C@H](C)c3c(OC)ccc(F)c3Cl)c2c1 [Example 12, 1-(4-{3-[(1S)-1-(2-Chloro-3-fluoro-6-methoxyphenyl)ethyl]-1H-pyrrolo[2,3-b]pyridin-5-yl}-3-ethyl-1H-pyrazol-1-yl)-2-methylpropan-2-ol] | 50 to 200 nM | 50 to 200 nM
12 | COc1ccc(F)c(Cl)c1[C@@H](C)c1c[nH]c2ncc(-c3cnn([C@H]4CC[C@H](C(=O)N(C)C)CC4)c3C)cc12 [Example 14, Trans-4-(4-{3-[(1S)-1-(2-chloro-3-fluoro-6-methoxyphenyl)ethyl]-1H-pyrrolo[2,3-b]pyridin-5-yl}-5-methyl-1H-pyrazol-1-yl)-N,N-dimethylcyclohexanecarboxamide] | ≤ 50 nM | ≤ 50 nM
13 | CNC(=O)[C@H]1CC[C@H](n2ncc(-c3cnc4[nH]cc([C@H](C)c5c(OC)ccc(F)c5Cl)c4c3)c2C)CC1 [Example 17, trans-4-(4-{3-[(1S)-1-(2-Chloro-3-fluoro-6-methoxyphenyl)ethyl]-1H-pyrrolo[2,3-b]pyridin-5-yl}-5-methyl-1H-pyrazol-1-yl)-N-methyl cyclohexanecarboxamide] | ≤ 50 nM | ≤ 50 nM
14 | COc1ccc(F)c(Cl)c1[C@@H](C)c1c[nH]c2ncc(-c3cnn([C@H]4CC[C@H](C(N)=O)CC4)c3C)cc12 [Example 18, trans-4-(4-{3-[(1S)-1-(2-chloro-3-fluoro-6-methoxyphenyl)ethyl]-1H-pyrrolo[2,3-b]pyridin-5-yl}-5-methyl-1H-pyrazol-1-yl)cyclohexanecarboxamide] | ≤ 50 nM | ≤ 50 nM
15 | COc1ccc(F)c(Cl)c1[C@@H](C)c1c[nH]c2ncc(-c3cn([C@H]4CC[C@H](C(N)=O)CC4)nc3C)cc12 [Example 19, trans-4-(4-{3-[(1S)-1-(2-Chloro-3-fluoro-6-methoxyphenyl)ethyl]-1H-pyrrolo[2,3-b]pyridin-5-yl}-3-methyl-1H-pyrazol-1-yl)cyclohexanecarboxamide] | ≤ 50 nM | ≤ 50 nM
16 | CNC(=O)[C@H]1CC[C@H](n2cc(-c3cnc4[nH]cc([C@H](C)c5c(OC)ccc(F)c5Cl)c4c3)c(C)n2)CC1 [Example 22, trans-4-(4-{3-[(1S)-1-(2-Chloro-3-fluoro-6-methoxyphenyl)ethyl]-1H-pyrrolo[2,3-b]pyridin-5-yl}-3-methyl-1H-pyrazol-1-yl)-N-methylcyclohexanecarboxamide] | ≤ 50 nM | ≤ 50 nM
17 | COc1ccc(F)c(Cl)c1[C@@H](C)c1c[nH]c2ncc(-c3cnn([C@H]4CC[C@H](O)CC4)c3C)cc12 [Example 27, trans-4-(4-{3-[(1S)-1-(2-Chloro-3-fluoro-6-methoxyphenyl)ethyl]-1H-pyrrolo[2,3-b]pyridin-5-yl}-5-methyl-1H-pyrazol-1-yl)cyclohexanol] | ≤ 50 nM | ≤ 50 nM
18 | COc1ccc(F)c(Cl)c1[C@@H](C)c1c[nH]c2ncc(-c3cnn([C@@H]4C[C@@H](O)[C@@H](O)C4)c3C)cc12 [Example 31, (1R,2S,4S)-4-(4-{3-[(1S)-1-(2-Chloro-3-fluoro-6-methoxyphenyl)ethyl]-1H-pyrrolo[2,3-b]pyridin-5-yl}-5-methyl-1H-pyrazol-1-yl)cyclopentane-1,2-diol] | ≤ 50 nM | ≤ 50 nM
19 | COc1ccc(F)c(Cl)c1[C@@H](C)c1c[nH]c2ncc(-c3cn([C@@H]4C[C@@H](O)[C@@H](O)C4)nc3C)cc12 [Example 32, (1R,2S,4S)-4-(4-{3-[(1S)-1-(2-Chloro-3-fluoro-6-methoxyphenyl)ethyl]-1H-pyrrolo[2,3-b]pyridin-5-yl}-3-methyl-1H-pyrazol-1-yl)cyclopentane-1,2-diol] | ≤ 50 nM | ≤ 50 nM
20 | COc1ccc(F)c(Cl)c1[C@@H](C)c1c[nH]c2ncc(-c3c(C)nn([C@@H]4C[C@@H](O)[C@@H](O)C4)c3C)cc12 [Example 33, (1R,2S,4S)-4-(4-{3-[(1S)-1-(2-Chloro-3-fluoro-6-methoxyphenyl)ethyl]-1H-pyrrolo[2,3-b]pyridin-5-yl}-3,5-dimethyl-1H-pyrazol-1-yl)cyclopentane-1,2-diol] | ≤ 50 nM | ≤ 50 nM
21 | COc1ccc(F)c(Cl)c1[C@@H](C)c1c[nH]c2ncc(-c3cn(C[C@@H](O)CO)nc3C(F)(F)F)cc12 [Example 34, (2R)-3-[4-{3-[(1S)-1-(2-Chloro-3-fluoro-6-methoxyphenyl)ethyl]-1H-pyrrolo[2,3-b]pyridin-5-yl}-3-(trifluoromethyl)-1H-pyrazol-1-yl]propane-1,2-diol] | 50 to 200 nM | 200 to 1000 nM
22 | COc1ccc(F)c(Cl)c1[C@@H](C)c1c[nH]c2ncc(-c3cnn(C[C@@H](O)CO)c3C(F)(F)F)cc12 [Example 35, (2R)-3-[4-{3-[(1S)-1-(2-Chloro-3-fluoro-6-methoxyphenyl)ethyl]-1H-pyrrolo[2,3-b]pyridin-5-yl}-5-(trifluoromethyl)-1H-pyrazol-1-yl]propane-1,2-diol] | 50 to 200 nM | 200 to 1000 nM
23 | COc1ccc(F)c(Cl)c1[C@@H](C)c1c[nH]c2ncc(-c3cnn(C)c3N)cc12 [Example 38, 4-{3-[(1S)-1-(2-Chloro-3-fluoro-6-methoxyphenyl)ethyl]-1H-pyrrolo[2,3-b]pyridin-5-yl}-1-methyl-1H-pyrazol-5-amine] | ≤ 50 nM | 50 to 200 nM
24 | COc1ccc(F)c(Cl)c1[C@@H](C)c1c[nH]c2ncc(-c3cn(C)nc3C(N)=O)cc12 [Example 39, 4-{3-[(1S)-1-(2-Chloro-3-fluoro-6-methoxyphenyl)ethyl]-1H-pyrrolo[2,3-b]pyridin-5-yl}-1-methyl-1H-pyrazole-3-carboxamide] | 50 to 200 nM | 200 to 1000 nM
25 | COc1ccc(F)c(Cl)c1[C@@H](C)c1c[nH]c2ncc(-c3c(C)nn(C)c3C(N)=O)cc12 [Example 41, 4-{3-[(1S)-1-(2-Chloro-3-fluoro-6-methoxyphenyl)ethyl]-1H-pyrrolo[2,3-b]pyridin-5-yl}-1,3-dimethyl-1H-pyrazole-5-carboxamide] | > 1000 nM | > 1000 nM
26 | COc1ccc(F)c(Cl)c1[C@@H](C)c1c[nH]c2ncc(-c3cn(C)nc3CO)cc12 [Example 42, (4-{3-[(1S)-1-(2-Chloro-3-fluoro-6-methoxyphenyl)ethyl]-1H-pyrrolo[2,3-b]pyridin-5-yl}-1-methyl-1H-pyrazol-3-yl)methanol] | 50 to 200 nM | 50 to 200 nM
